Laboratory results published in ChEMBL document CHEMBL5052842, “Pharmaceutical compounds and their use as inhibitors of ubiquitin specific protease 19 (usp19)” (2020).

Target: T1, Ubiquitin carboxyl-terminal hydrolase 19 (Homo sapiens, UniProt O94966)
T1 sequence (O94966 whole entry): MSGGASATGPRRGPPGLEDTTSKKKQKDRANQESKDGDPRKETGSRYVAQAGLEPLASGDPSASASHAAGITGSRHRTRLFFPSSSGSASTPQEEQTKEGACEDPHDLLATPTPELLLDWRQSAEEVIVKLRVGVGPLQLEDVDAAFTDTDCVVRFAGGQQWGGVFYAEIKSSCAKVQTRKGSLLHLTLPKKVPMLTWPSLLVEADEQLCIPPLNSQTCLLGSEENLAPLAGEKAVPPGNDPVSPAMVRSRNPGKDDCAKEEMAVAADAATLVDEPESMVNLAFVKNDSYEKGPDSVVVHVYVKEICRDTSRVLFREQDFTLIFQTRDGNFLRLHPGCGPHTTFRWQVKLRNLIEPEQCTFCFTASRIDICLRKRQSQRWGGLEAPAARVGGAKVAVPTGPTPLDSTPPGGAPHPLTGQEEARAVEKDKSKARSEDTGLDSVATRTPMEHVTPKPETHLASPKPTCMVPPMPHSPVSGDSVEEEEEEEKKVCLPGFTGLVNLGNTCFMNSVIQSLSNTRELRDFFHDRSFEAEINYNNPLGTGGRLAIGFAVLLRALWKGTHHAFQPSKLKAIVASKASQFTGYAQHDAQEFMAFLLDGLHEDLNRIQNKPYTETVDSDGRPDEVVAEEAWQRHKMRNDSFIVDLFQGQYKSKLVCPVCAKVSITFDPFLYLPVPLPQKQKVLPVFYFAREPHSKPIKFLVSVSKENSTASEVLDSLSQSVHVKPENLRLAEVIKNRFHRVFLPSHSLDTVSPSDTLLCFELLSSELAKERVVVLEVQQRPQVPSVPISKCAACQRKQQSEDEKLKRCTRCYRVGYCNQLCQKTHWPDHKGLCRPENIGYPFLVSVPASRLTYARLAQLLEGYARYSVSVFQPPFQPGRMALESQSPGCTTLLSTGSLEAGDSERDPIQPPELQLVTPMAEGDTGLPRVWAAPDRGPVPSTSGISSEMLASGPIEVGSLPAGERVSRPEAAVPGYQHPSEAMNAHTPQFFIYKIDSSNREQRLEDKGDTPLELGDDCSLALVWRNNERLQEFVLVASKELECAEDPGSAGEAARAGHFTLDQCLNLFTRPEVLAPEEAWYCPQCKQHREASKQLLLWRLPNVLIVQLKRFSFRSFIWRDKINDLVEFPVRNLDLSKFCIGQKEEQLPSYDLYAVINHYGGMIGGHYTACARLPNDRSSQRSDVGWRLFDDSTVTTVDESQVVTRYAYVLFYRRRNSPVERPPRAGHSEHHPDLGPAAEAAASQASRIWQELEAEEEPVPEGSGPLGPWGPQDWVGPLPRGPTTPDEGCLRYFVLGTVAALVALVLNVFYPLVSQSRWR
Assay: Inhibition of C-terminal His6-tagged recombinant human USP19 using iso-peptide ubiquitin-Lys-TAMRA as substrate incubated for 30 mins and measured after 90 mins by fluorescent polarization assay

O=C(N1CCC(O)(Cn2cnc3cc(F)c(F)cc3c2=O)C2(CCCC2)C1)N1CCNC[C@H]1c1ccccc1 (stereo not given in full)
IC50: < 500 nM

O=C(N1CCC(O)(Cn2cnc3ccc(F)cc3c2=O)C2(CCCC2)C1)N1CCNC[C@H]1c1ccccc1 (stereo not given in full)
IC50: < 500 nM

C[C@H](CC1CCCCC1)C(=O)N1CCC(O)(Cn2cc(C(=O)N(C)C)ncc2=O)C2(CCCC2)C1 (stereo not given in full)
IC50: < 500 nM

C[C@H](CC1CCCCC1)C(=O)N1CCC(O)(Cn2cc([S+](C)[O-])c(-c3ccccc3)cc2=O)C2(CCCC2)C1 (stereo not given in full)
IC50: < 500 nM

O=C(N1CCC(O)(Cn2cnc3c(cnn3Cc3ccccc3)c2=O)C2(CCCC2)C1)N1CCNC[C@H]1c1ccccc1 (stereo not given in full)
IC50: < 500 nM

O=C(NCc1cccs1)N1CC[C@@](O)(Cn2cnc(-c3ccccc3)cc2=O)C2(CCCC2)C1
IC50: < 500 nM

C[C@H](CC1CCCCC1)C(=O)N1CCC(O)(Cn2cc([S+](C)[O-])c(Cl)cc2=O)C2(CCCC2)C1 (stereo not given in full)
IC50: < 500 nM

C[C@H](CC1CCCCC1)C(=O)N1CCC(O)(Cn2cc(N=S(C)(C)=O)c(-c3ccccc3)cc2=O)C2(CCCC2)C1 (stereo not given in full)
IC50: < 500 nM

O=C(N1CC[C@@](O)(Cn2cnc(Cl)cc2=O)C2(CCCC2)C1)N1CCOC[C@H]1c1ccccc1
IC50: < 500 nM

C[C@H](CC(F)(F)F)C(=O)N1CCC(O)(Cn2cc(N=S(C)(C)=O)c(-c3ccccc3)cc2=O)C2(CCCC2)C1 (stereo not given in full)
IC50: < 500 nM

CN(C)C(=O)c1cn(CC2(O)CCN(C(=O)N(C)CC3CCCCC3)CC23CCCC3)c(=O)cc1-c1ccccc1 (stereo not given)
IC50: < 500 nM

CCn1ncc2c(=O)n(CC3(O)CCN(C(=O)[C@H](C)CC4CCCCC4)CC34CCCC4)cnc21 (stereo not given in full)
IC50: < 500 nM

O=C(NCc1ccccc1)N1CCC(O)(Cn2cnc(-c3ccccc3)cc2=O)C2(CCCC2)C1 (stereo not given)
IC50: < 500 nM

CC(=O)N1CCN(CC2(O)CCN(C(=O)[C@H](C)CC3CCCCC3)CC23CCCC3)C(=O)C1 (stereo not given in full)
IC50: < 500 nM

O=C(NCc1ccco1)N1CC[C@@](O)(Cn2cnc(-c3ccccc3)cc2=O)C2(CCCC2)C1
IC50: < 500 nM

C[C@H](CC1CCCCC1)C(=O)N1CCC(O)(Cn2cnc3ccc(F)cc3c2=O)C2(CCCC2)C1 (stereo not given in full)
IC50: < 500 nM

C[S+]([O-])c1cn(CC2(O)CCN(C(=O)N3CCNC[C@H]3c3ccccc3)CC23CCCC3)c(=O)cc1-c1ccccc1 (stereo not given in full)
IC50: < 500 nM

O=C(N1CC[C@@](O)(Cn2ccc3ncncc3c2=O)C2(CCCC2)C1)N1CCNC[C@H]1c1ccccc1
IC50: < 500 nM

CN(C)C(=O)c1cn(CC2(O)CCN(C(=O)NCc3ccccc3)CC23CCCC3)c(=O)cc1-c1ccccc1 (stereo not given)
IC50: < 500 nM

C[C@H](CC1CCCCC1)C(=O)N1CCC(O)(Cn2cc(C(=O)N3CCNCC3)ncc2=O)C2(CCCC2)C1 (stereo not given in full)
IC50: < 500 nM

C[C@H](CC1CCCCC1)C(=O)N1CCC(O)(Cn2cnc3cc(F)c(Cl)cc3c2=O)C2(CCCC2)C1 (stereo not given in full)
IC50: < 500 nM

CSc1ncc2c(=O)n(CC3(O)CCN(C(=O)[C@H](C)CC4CCCCC4)CC34CCCC4)cnc2n1 (stereo not given in full)
IC50: < 500 nM

O=C(NCc1ccccc1)N1CCC(O)(Cn2ccc(-c3ccccc3)cc2=O)C2(CCCC2)C1 (stereo not given)
IC50: < 500 nM

O=C(N1CCC(O)(Cn2cnc3ccc(F)cc3c2=O)C2(CCCC2)C1)N1CCOC[C@H]1c1ccccc1 (stereo not given in full)
IC50: < 500 nM

CSc1cn(CC2(O)CCN(C(=O)[C@H](C)CC3CCCCC3)CC23CCCC3)c(=O)cc1Cl (stereo not given in full)
IC50: < 500 nM

C[C@H](CC1CCCCC1)C(=O)N1CCC(O)(Cn2cnc3cc(F)c(F)cc3c2=O)C2(CCCC2)C1 (stereo not given in full)
IC50: < 500 nM

C[C@H](CC1CCCCC1)C(=O)N1CCC(O)(Cn2cnc3c(cnn3-c3ccccc3)c2=O)C2(CCCC2)C1 (stereo not given in full)
IC50: < 500 nM

C[C@H](CC1CCCCC1)C(=O)N1CCC(O)(CN2CCN(c3ccccc3)CC2=O)C2(CCCC2)C1 (stereo not given in full)
IC50: < 500 nM

C[C@H](CC1CCCCC1)C(=O)N1CCC(O)(Cn2cc(S(C)(=N)=O)c(Cl)cc2=O)C2(CCCC2)C1 (stereo not given in full)
IC50: < 500 nM

O=C1CN(c2ccccc2)CCN1CC1(O)CCN(C(=O)NCc2ccccc2)CC12CCCC2 (stereo not given)
IC50: < 500 nM

C[C@H](CC1CCCCC1)C(=O)N1CCC(O)(Cn2cc(S(C)(=N)=O)c(-c3ccccc3)cc2=O)C2(CCCC2)C1 (stereo not given in full)
IC50: < 500 nM

O=C(N1CCC(O)(Cn2cnc3cc(F)c(F)cc3c2=O)C2(CCCC2)C1)N1CCOC[C@H]1c1ccccc1 (stereo not given in full)
IC50: < 500 nM

O=C(N1CC[C@@](O)(Cn2cnc(-c3ccccc3)cc2=O)C2(CCCC2)C1)N1CCOC[C@H]1c1ccccc1
IC50: < 500 nM

C[C@H](CC1CCCCC1)C(=O)N1CCC(O)(Cn2cc(S(C)(=O)=O)c(-c3ccccc3)cc2=O)C2(CCCC2)C1 (stereo not given in full)
IC50: < 500 nM

C[C@H](CC1CCCCC1)C(=O)N1CCC(O)(Cn2cc(S(C)(=O)=O)c(Cl)cc2=O)C2(CCCC2)C1 (stereo not given in full)
IC50: < 500 nM

Cn1ncc2c(=O)n(CC3(O)CCN(C(=O)N4CCNC[C@H]4c4ccccc4)CC34CCCC4)cnc21 (stereo not given in full)
IC50: < 500 nM

CSc1cn(CC2(O)CCN(C(=O)[C@H](C)CC3CCCCC3)CC23CCCC3)c(=O)cc1-c1ccccc1 (stereo not given in full)
IC50: < 500 nM

C[C@H](CC1CCCCC1)C(=O)N1CCC(O)(CN2CCN(C(=O)OC(C)(C)C)CC2=O)C2(CCCC2)C1 (stereo not given in full)
IC50: < 500 nM

C[C@H](CC1CCCCC1)C(=O)N1CCC(O)(Cn2cc(Cl)ncc2=O)C2(CCCC2)C1 (stereo not given in full)
IC50: < 500 nM

COC(=O)c1cn(CC2(O)CCN(C(=O)[C@H](C)CC3CCCCC3)CC23CCCC3)c(=O)cn1 (stereo not given in full)
IC50: < 500 nM

CN(C)C(=O)C1CN(C[C@]2(O)CCN(C(=O)[C@H](CO)CC3CCCCC3)CC2(C)C)C(=O)CC1c1ccccc1 (stereo not given in full)
IC50: < 500 nM

C[C@H](CC1CCCCC1)C(=O)N1CCC(O)(Cn2cnc3ccc(Cl)cc3c2=O)C2(CCCC2)C1 (stereo not given in full)
IC50: < 500 nM

C[C@H](CC(F)(F)F)C(=O)N1CCC(O)(CN2CCN(c3ccccn3)CC2=O)C2(CCCC2)C1 (stereo not given in full)
IC50: < 500 nM

O=C(N1CCC(O)(Cn2ccc3ccncc3c2=O)C2(CCCC2)C1)N1CCNC[C@H]1c1ccccc1 (stereo not given in full)
IC50: < 500 nM

COc1ccc2c(=O)n(CC3(O)CCN(C(=O)[C@H](C)CC4CCCCC4)CC34CCCC4)ccc2c1 (stereo not given in full)
IC50: ≤ 5000 nM

O=C(N1CC[C@@](O)(Cn2cnc(-c3ccccc3)cc2=O)C2(CCCC2)C1)N1CCNC[C@@H]1c1ccccc1
IC50: < 500 nM

CSc1ncc2c(=O)n(C[C@]3(O)CCN(C(=O)N4CCNC[C@H]4c4ccccc4)CC34CCCC4)ccc2n1
IC50: < 500 nM

CN(C)C(=O)c1cn(CC2(O)CCN(C(=O)N3CCC(C(F)(F)F)C3)CC23CCCC3)c(=O)cc1-c1ccccc1 (stereo not given)
IC50: < 500 nM

CSc1ncc2c(=O)n(CC3(O)CCN(C(=O)[C@H](C)CC4CCCCC4)CC34CCCC4)n(C)c2n1 (stereo not given in full)
IC50: < 500 nM

CSc1cn(CC2(O)CCN(C(=O)N3CCNC[C@H]3c3ccccc3)CC23CCCC3)c(=O)cc1-c1ccccc1 (stereo not given in full)
IC50: < 500 nM

CS(=O)(=O)c1cn(CC2(O)CCN(C(=O)N3CCNC[C@H]3c3ccccc3)CC23CCCC3)c(=O)cc1-c1ccccc1 (stereo not given in full)
IC50: < 500 nM

C[C@H](CC1CCCCC1)C(=O)N1CCC(O)(Cn2cc(Br)ncc2=O)C2(CCCC2)C1 (stereo not given in full)
IC50: < 500 nM

O=C(N1CC[C@@](O)(Cn2cnc(-c3ccccc3)cc2=O)C2(CCCC2)C1)N1CCC[C@H]1c1ccccc1
IC50: < 500 nM

C[C@H](CC1CCCCC1)C(=O)N1CCC(O)(CN2CCOCC2=O)C2(CCCC2)C1 (stereo not given in full)
IC50: < 500 nM

Cc1cn(CC2(O)CCN(C(=O)N3CCNC[C@H]3c3ccccc3)CC23CCCC3)c(=O)cn1 (stereo not given in full)
IC50: < 500 nM

CSc1ncc2c(=O)n(CC3(O)CCN(C(=O)[C@H](C)CC(F)(F)F)CC34CCCC4)ccc2n1 (stereo not given in full)
IC50: < 500 nM

CS(=N)(=O)c1cn(CC2(O)CCN(C(=O)N3CCOC[C@H]3c3ccccc3)CC23CCCC3)c(=O)cc1-c1ccccc1 (stereo not given in full)
IC50: < 500 nM

CS(=N)(=O)c1cn(CC2(O)CCN(C(=O)N3CCNC[C@H]3c3ccccc3)CC23CCCC3)c(=O)cc1-c1ccccc1 (stereo not given in full)
IC50: < 500 nM

CSc1ncc2c(=O)n(CC3(O)CCN(C(=O)[C@H](C)CC4CCCCC4)CC34CCCC4)ccc2n1 (stereo not given in full)
IC50: < 500 nM

O=C(NCc1cccc(F)c1)N1CC[C@@](O)(Cn2cnc(-c3ccccc3)cc2=O)C2(CCCC2)C1
IC50: < 500 nM

C[C@H](CC(F)(F)F)C(=O)N1CCC(O)(CN2CCN(c3ccccc3)CC2=O)C2(CCCC2)C1 (stereo not given in full)
IC50: < 500 nM

O=C(N1CCC(O)(Cn2cnc3c(cnn3-c3ccccc3)c2=O)C2(CCCC2)C1)N1CCNC[C@H]1c1ccccc1 (stereo not given in full)
IC50: < 500 nM

C[C@H](CC1CCCCC1)C(=O)N1CCC(O)(Cn2ccc3ccncc3c2=O)C2(CCCC2)C1 (stereo not given in full)
IC50: < 500 nM

O=C(N1CCC(O)(Cn2cnc3c(cnn3C3CC3)c2=O)C2(CCCC2)C1)N1CCNC[C@H]1c1ccccc1 (stereo not given in full)
IC50: < 500 nM

CN(C)C(=O)c1cn(CC2(O)CCN(C(=O)N(C)Cc3ccccc3)CC23CCCC3)c(=O)cc1-c1ccccc1 (stereo not given)
IC50: < 500 nM
